This passage reports IC50 results from US8664257B2, “Oxygen-substituted 3-heteroaroylamino-propionic acid derivatives and their use as pharmaceuticals” (Sanofi, priority 2010, dated 2014).

The first test addresses T1, Recombinant human cathepsin A (Homo sapiens, UniProt P10619).
T1 construct: Recombinant human cathepsin A (residues 29-480, with a C-terminal 10-His tag); 10-His (C); purchased R&D Systems 1049-SE
T1 sequence (P10619 29-312 limits assumed): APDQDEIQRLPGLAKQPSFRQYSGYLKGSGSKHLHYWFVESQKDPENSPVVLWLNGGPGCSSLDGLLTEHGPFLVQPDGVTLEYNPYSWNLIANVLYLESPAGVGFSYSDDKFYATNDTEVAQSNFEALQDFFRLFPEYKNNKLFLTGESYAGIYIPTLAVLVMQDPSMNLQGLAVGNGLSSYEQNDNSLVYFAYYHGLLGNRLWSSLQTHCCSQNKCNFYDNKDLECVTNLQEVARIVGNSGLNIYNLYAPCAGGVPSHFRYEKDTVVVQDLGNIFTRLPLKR
T1 sequence (P10619 327-480 limits assumed): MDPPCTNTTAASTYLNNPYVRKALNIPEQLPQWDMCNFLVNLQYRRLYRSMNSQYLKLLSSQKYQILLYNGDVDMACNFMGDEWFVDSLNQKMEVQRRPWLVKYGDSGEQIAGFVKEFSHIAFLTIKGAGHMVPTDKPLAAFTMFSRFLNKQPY
The experiment in a line: Cathepsin A inhibitory activity. Format: biochemical. The note with it: pharmacological test "Cathepsin A inhibitory activity"; IC50 given as class A/B/C; read-out: Activity (2): Cathepsin A inhibitory activity, IC50 class. Summed up:
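Human cathepsin A (res. 29-480, C-His10) pre-activated with cathepsin L (MES pH 6.0, DTT, 15 min, 37 °C; quenched with 10 μM E-64). Enzyme (833 ng/ml) preincubated 15 min RT with compound in MES pH 5.5/DTT, then 2 μM Bodipy FL-bradykinin for 15 min RT. Capillary electrophoresis product/substrate peak areas; IC50 from % inhibition.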
A word on the IC50: it is the concentration needed to halve the response being measured. Consider `COc1ccc(Cl)cc1C(CC(=O)O)NC(=O)c1cc(O)n(-c2cccc(Cl)c2)n1` (stereo not shown) [Example 255], for which the IC50 is 0.1 to 1 µM.

Turning to `N#Cc1cccc([C@H](CC(=O)O)NC(=O)c2cc(O)n(-c3ccccc3F)n2)c1` [Example 230], the IC50 lay within 0.1 to 1 µM.

Turning to `O=C(O)CC(NC(=O)c1cc(O)n(-c2ccccc2F)n1)c1ccc(-c2ccccc2)cc1` (stereo not shown) [Example 150], the IC50 is under 0.1 µM.

Consider `COc1ccc(C(CC(=O)O)NC(=O)c2cc(O)n(-c3ccccc3F)n2)c(OC)c1` (stereo not shown) [Example 232], for which the IC50 is 0.1 to 1 µM.

Regarding `CCc1ccc(C(CC(=O)O)NC(=O)c2cc(O)n(-c3cccc(Cl)c3)n2)cc1` (stereo not shown) [Example 264], the IC50 lay within 0.1 to 1 µM.

In the case of `Cc1ccc(C(CC(=O)O)NC(=O)c2cc(O)n(-c3ccccc3Cl)n2)c(C)c1` (stereo not shown) [Example 225], the IC50 fell in the range of 0.1 to 1 µM.

Staying with this test, now noted: read-out: Activity (2): Cathepsin A inhibitory activity (IC50 class).
On to `Cc1ccccc1[C@H](CC(=O)O)NC(=O)c1cc(OCC2CCCCC2)n(-c2ccccc2F)n1` [Example 638], for which the IC50 was under 0.1 µM.

On to `CC(C)(C)[C@H](O)COc1cc(C(=O)N[C@@H](CC(=O)O)c2ccc(Cl)cc2Cl)nn1-c1ccccc1F` [Example 754, (S)-3-(2,4-Dichloro-phenyl)-3-{[1-(2-fluoro-phenyl)-5-((S)-2-hydroxy-3,3-dimethyl-butoxy)-1H-pyrazole-3-carbonyl]-amino}-propionic acid], for which the concentration for half-maximal inhibition (IC50) was under 0.1 µM.

For the compound `COc1cc(C(=O)N[C@@H](CC(=O)O)c2ccccc2Cl)nn1-c1ccccc1F` [Example 676], the IC50 is under 0.1 µM.

On to `COc1ccc(C(F)(F)F)cc1C(CC(=O)O)NC(=O)c1cc(O)n(-c2ccccc2F)n1` (stereo not shown) [Example 554, 3-{[1-(2-Fluoro-phenyl)-5-hydroxy-1H-pyrazole-3-carbonyl]-amino}-3-(2-methoxy-5-trifluoromethyl-phenyl)-propionic acid], for which the IC50 was in the range of 1 to 30 µM.

As to `COc1c(F)c(C(=O)N[C@@H](CC(=O)O)c2ccccc2C)nn1-c1ccccc1F` [Example 595], the IC50 was under 0.1 µM.

Consider `CCCCCCOc1cc(C(=O)N[C@@H](CC(=O)O)c2ccccc2C)nn1-c1ccccc1F` [Example 660], for which the IC50 is under 0.1 µM.

As for `O=C(O)CC(NC(=O)c1cc(O)n(-c2ccccc2Cl)n1)c1ccc(N2CCCC2)cc1` (stereo not shown) [Example 568, 3-{[1-(2-Chloro-phenyl)-5-hydroxy-1H-pyrazole-3-carbonyl]-amino}-3-(4-pyrrolidin-1-yl-phenyl)-propionic acid], the IC50 is 1 to 30 µM.

`COCCOc1cc(C(=O)N[C@@H](CC(=O)O)c2ccccc2C)nn1-c1ccccc1F` [Example 617]: the IC50 is under 0.1 µM.

Still in this test, the particulars now being: read-out: Activity (2): Cathepsin A inhibitory activity, IC50 class.
Turning to `O=C(O)C[C@H](NC(=O)c1cc(O)n(-c2ccc(Cl)cc2)n1)c1c(F)cccc1F` [Example 295], the IC50 is 1 to 30 µM.

For `Cc1ccc([C@H](CC(=O)O)NC(=O)c2cc(OC[C@](C)(O)C(C)C)n(-c3ccccc3F)n2)c(C)c1` [Example 859, (S)-3-(2,4-Dimethyl-phenyl)-3-{[1-(2-fluoro-phenyl)-5-((R)-2-hydroxy-2,3-dimethyl-butoxy)-1H-pyrazole-3-carbonyl]-amino}-propionic acid], the IC50 was under 0.1 µM.

With `O=C(O)CC(NC(=O)c1cc(O)n(-c2cccc(F)c2)n1)c1cccc2c1OCO2` (stereo not shown) [Example 300], the IC50 was 0.1 to 1 µM.

For the compound `O=C(O)C[C@H](NC(=O)c1cc(O)n(-c2ccc(Cl)cc2)n1)c1ccc(Cl)cc1Cl` [Example 297], the IC50 lay within 0.1 to 1 µM.

`O=C(O)C[C@H](NC(=O)c1cc(O)n(-c2ccccc2)n1)c1cccnc1` [Example 137]: the IC50 was 0.1 to 1 µM.

As for `Cc1ccccc1[C@H](CC(=O)O)NC(=O)c1cc(O)n(-c2ccnc(Cl)c2)n1` [Example 131], the IC50 was 0.1 to 1 µM.

`O=C(O)CC(NC(=O)c1cc(O)n(-c2cccc(F)c2)n1)c1cccc(C(F)(F)F)c1` (stereo not shown) [Example 304]: the IC50 lay within 0.1 to 1 µM.

Take `CC(C)C[C@@H](CC(=O)O)NC(=O)c1cc(OC[C@@](C)(O)C(C)C)n(-c2ccccc2F)n1` [Example 841, (S)-3-{[1-(2-Fluoro-phenyl)-5-((S)-2-hydroxy-2,3-dimethyl-butoxy)-1H-pyrazole-3-carbonyl]-amino}-5-methyl-hexanoic acid]: the IC50 was 1 to 30 µM.

Consider `COc1ccc([C@H](CC(=O)O)NC(=O)c2cc(OC[C@@](C)(O)C(C)C)n(-c3ccccc3F)n2)cc1` [Example 840, (S)-3-{[1-(2-Fluoro-phenyl)-5-((S)-2-hydroxy-2,3-dimethyl-butoxy)-1H-pyrazole-3-carbonyl]-amino}-3-(4-methoxy-phenyl)-propionic acid], for which the IC50 is 1 to 30 µM.

As to `Cc1cccc(C(CC(=O)O)NC(=O)c2cc(O)n(-c3ccc(F)cc3)n2)c1C` (stereo not shown) [Example 358], the IC50 was in the range of 0.1 to 1 µM.

As to `O=C(O)CC(NC(=O)c1cc(O)n(-c2cccc(F)c2)n1)c1ccc(Cl)c(Cl)c1` (stereo not shown) [Example 328], the IC50 was in the range of 0.1 to 1 µM.

As to `O=C(O)CC(NC(=O)c1cc(O)n(-c2cccc(F)c2)n1)c1ccccc1F` (stereo not shown) [Example 308], the IC50 was 0.1 to 1 µM.

Take `COc1cccc([C@H](CC(=O)O)NC(=O)c2cc(O)n(-c3ccccc3F)n2)c1OC` [Example 403]: the IC50 was in the range of 0.1 to 1 µM.

For the compound `Cc1ccc([C@H](CC(=O)O)NC(=O)c2cc(OC[C@@H](O)C(C)(C)C)n(-c3ccccc3F)n2)cc1` [Example 801, (S)-3-{[1-(2-Fluoro-phenyl)-5-((S)-2-hydroxy-3,3-dimethyl-butoxy)-1H-pyrazole-3-carbonyl]-amino}-3-p-tolyl-propionic acid], the IC50 is under 0.1 µM.

Consider `COc1cccc([C@H](CC(=O)O)NC(=O)c2cc(O)n(-c3ccc(Cl)cc3)n2)c1` [Example 278], for which the IC50 fell in the range of 1 to 30 µM.

Still in this test, the particulars now being: recombinant human cathepsin A 833 ng/ml, Bodipy FL-labeled bradykinin 2 μM, pH 5.5; read-out: CATH-A IC50.
Regarding `COc1ccc(C(F)(F)F)cc1C(CC(=O)O)NC(=O)c1cc(O)n(-c2ccccc2F)n1` (stereo not shown) [Example 554, 3-{[1-(2-Fluoro-phenyl)-5-hydroxy-1H-pyrazole-3-carbonyl]-amino}-3-(2-methoxy-5-trifluoromethyl-phenyl)-propionic acid], the IC50 came out at 1.84 µM.

Turning to `O=C(O)CC(NC(=O)c1cc(O)n(-c2ccccc2Cl)n1)c1ccc(N2CCCC2)cc1` (stereo not shown) [Example 568, 3-{[1-(2-Chloro-phenyl)-5-hydroxy-1H-pyrazole-3-carbonyl]-amino}-3-(4-pyrrolidin-1-yl-phenyl)-propionic acid], the IC50 was 2.35 µM.

`O=C(O)CC(NC(=O)c1cc(O)n(-c2ccccc2Cl)n1)c1cc(F)ccc1F` (stereo not shown) [Example 459, 3-{[1-(2-Chloro-phenyl)-5-hydroxy-1H-pyrazole-3-carbonyl]-amino}-3-(2,5-difluoro-phenyl)-propionic acid]: the half-maximal inhibitory concentration (IC50) is 0.128 µM.

Still in this test, the particulars now being: recombinant human cathepsin A; read-out: Activity (2): Cathepsin A inhibitory activity, IC50 class.
As for `O=C(O)CC(NC(=O)c1cc(O)n(-c2ccccc2)n1)c1ccccc1Oc1ccccc1` (stereo not shown) [Example 442], the IC50 was in the range of 1 to 30 µM.

In the case of `COc1cccc([C@H](CC(=O)O)NC(=O)c2cc(O)n(-c3cccc(Cl)c3)n2)c1` [Example 413], the IC50 fell in the range of 1 to 30 µM.

For `CC[C@@H](C)NC(=O)C[C@H](NC(=O)c1cc(OC)n(-c2ccccc2F)n1)c1ccccc1C` [Example 918, 1-(2-Fluoro-phenyl)-5-methoxy-1H-pyrazole-3-carboxylic acid [(S)-2-((R)-sec-butylcarbamoyl)-1-o-tolyl-ethyl]-amide], the IC50 lay in the range of 1 to 30 µM.

For `Cc1ccc(F)cc1C(CC(=O)O)NC(=O)c1cc(O)n(-c2ccccc2F)n1` (stereo not shown) [Example 478], the IC50 was under 0.1 µM.

On to `O=C(O)C[C@H](NC(=O)c1cc(O)n(-c2cccc(F)c2)n1)c1cccc(Cl)c1` [Example 430], for which the IC50 lay within 0.1 to 1 µM.

As to `COc1ccc(C(CC(=O)O)NC(=O)c2cc(O)n(-c3ccc(F)cc3)n2)c(OC)c1` (stereo not shown) [Example 436], the IC50 lay in the range of 1 to 30 µM.

In the case of `O=C(O)CC(NC(=O)c1cc(O)n(-c2ccccc2Cl)n1)c1cc(F)ccc1F` (stereo not shown) [Example 459, 3-{[1-(2-Chloro-phenyl)-5-hydroxy-1H-pyrazole-3-carbonyl]-amino}-3-(2,5-difluoro-phenyl)-propionic acid], the IC50 was in the range of 0.1 to 1 µM.

Turning to `O=C(O)C[C@H](NC(=O)c1cc(O)n(-c2cccc(F)c2)n1)c1ccccc1Cl` [Example 522], the IC50 lay within 0.1 to 1 µM.
